The results in this text go back to patent publication US20220089592A1, “IMIDAZO[1,2-A]PYRIDINYL DERIVATIVES AS IRAK4 INHIBITORS” (priority 2019, published 2022).

The target of this assay is T1, IRAK4 (Homo sapiens, UniProt Q9NWZ3).
T1 sequence (Q9NWZ3 1-460): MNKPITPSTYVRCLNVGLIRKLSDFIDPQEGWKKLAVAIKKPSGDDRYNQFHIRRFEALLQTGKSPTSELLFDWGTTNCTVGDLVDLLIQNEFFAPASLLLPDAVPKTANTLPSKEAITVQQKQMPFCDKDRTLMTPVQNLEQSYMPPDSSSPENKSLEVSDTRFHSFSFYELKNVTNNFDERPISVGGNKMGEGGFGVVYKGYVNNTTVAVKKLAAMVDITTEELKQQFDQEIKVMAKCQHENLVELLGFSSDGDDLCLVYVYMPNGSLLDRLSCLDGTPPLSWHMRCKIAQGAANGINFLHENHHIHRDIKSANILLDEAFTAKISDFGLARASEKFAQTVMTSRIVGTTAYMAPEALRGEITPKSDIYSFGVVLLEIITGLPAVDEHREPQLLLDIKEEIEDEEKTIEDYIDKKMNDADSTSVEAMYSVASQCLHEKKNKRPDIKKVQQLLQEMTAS
The assay can be described thus: 2-hour 10 μM ATP Biochemical Assay (MesoScale Detection format; IRAK4 phosphorylation of biotin labeled IRAK1 activation loop peptide). To be noted: IRAK4 MSD BIOCHEMICAL (10 μM ATP) IC50 (μM), 1 nM IRAK4, 2 hours. The method, then: The 2-hour 10 μM ATP Biochemical Assay employs a MesoScale Detection (MSD) format.
The activity is quenched with 11 μl of 70 mM EDTA, pH 8.
To detect the phosphorylated biotinylated peptide substrate, 30 μl of the quenched reaction mixture is added to equivalent wells of a 384 well streptavidin coated MesoScale plate (Meso Scale Discovery #L21SA-1). After a 1 hour incubation of the plate for 1 hour at room temperature with gentle mixing, the plate wells are washed 3 times with 50 mM Tris, pH 7.5, 150 mM NaCl, 0.02% Tween-20.
A 25 μl volume of 1:500 anti-P-Threonine Rabbit polyclonal Antibody plus 1:500 Goat-anti-Rabbit Sulfo Tag Antibody (Meso Scale Discovery R32AB-1) in 50 mM Tris, pH 7.5, 150 mM NaCl, 0.02% Tween-20 plus 2% BSA is then added to each well. After a 1-hour incubation of the plate for 1 hour at room temperature with gentle mixing, the plate wells are washed, 3 times with 50 mM Tris, pH 7.5, 150 mM NaCl, 0.02% Tween-20. A 40 μl volume of 2×MSD Read Buffer (Meso Scale Discovery R92TC-1) is added to each well, and the plate is read immediately in an MSD Plate Reader (Meso Scale Discovery).
The compound `COc1cc2nc(C3CC3)cn2cc1NC(=O)c1cccn(C)c1=O` [Example 52, N-(2-cyclopropyl-7-methoxyimidazo[1,2-a]pyridin-6-yl)-1-methyl-2-oxo-1,2-dihydropyridine-3-carboxamide] came in with an IC50 of 0.033 µM.
Take `CCOc1cc2nc(C3CC3)cn2cc1NC(=O)c1cc2ncccn2n1` [Example 53, N-(2-cyclopropyl-7-ethoxyimidazo[1,2-a]pyridin-6-yl)pyrazolo[1,5-a]pyrimidine-2-carboxamide]: the IC50 stood at 0.11 µM.
`CCOc1cc2nc(C3CC3)cn2cc1NC(=O)c1cccc(C(F)(F)F)c1` [Example 54, N-(2-cyclopropyl-7-ethoxyimidazo[1,2-a]pyridin-6-yl)-3-(trifluoromethyl)benzamide] had an IC50 of 0.14 µM.
Compound `CCOc1cc2nc(C)c(C)n2cc1NC(=O)c1cccc(C(F)(F)F)n1` [Example 58, N-(7-ethoxy-2,3-dimethylimidazo[1,2-a]pyridin-6-yl)-6-(trifluoromethyl)picolinamide] gave a half-inhibitory concentration (IC50) of 0.11 µM.
Under `CCOc1cc2nc3c(n2cc1NC(=O)c1cccc(C(F)(F)F)n1)CNCC3` [Example 64, N-(7-ethoxy-1,2,3,4-tetrahydroimidazo[1,2-a:5,4-c′]dipyridin-8-yl)-6-(trifluoromethyl)picolinamide] stands 0.68 µM.
Under `CCOc1cc2nc(C3CCN(C)CC3)cn2cc1NC(=O)c1cccc(C(F)(F)F)n1` [Example 67, N-(7-ethoxy-2-(1-methylpiperidin-4-yl)imidazo[1,2-a]pyridin-6-yl)-6-(trifluoromethyl)picolinamide] stands 0.001 µM.
Under `CCOc1cc2nc(C3CC3)cn2cc1NC(=O)c1cccn(CC(F)(F)F)c1=O` [Example 70, N-(2-cyclopropyl-7-ethoxyimidazo[1,2-a]pyridin-6-yl)-2-oxo-1-(2,2,2-trifluoroethyl)-1,2-dihydropyridine-3-carboxamide] stands 0.15 µM.
The compound `CCOc1cc2nc(C3CC3)cn2cc1NC(=O)c1cccnc1OCC(F)(F)F` [Example 71, N-(2-cyclopropyl-7-ethoxyimidazo[1,2-a]pyridin-6-yl)-2-(2,2,2-trifluoroethoxy)nicotinamide] had an IC50 of 0.66 µM.
The result for `CCc1cn2cc(NC(=O)c3cccc(C(F)F)n3)cc(F)c2n1` [Example 76, 6-(difluoromethyl)-N-(2-ethyl-8-fluoroimidazo[1,2-a]pyridin-6-yl)picolinamide] reads 0.17 µM; that for `O=C(Nc1cnc2nc(C3CC3)cn2c1)c1cccc(C(F)(F)F)n1` [Example 92, N-(2-cyclopropylimidazo[1,2-a]pyrimidin-6-yl)-6-(trifluoromethyl)picolinamide], 0.076 µM.
The result for `O=C(Nc1cn2cc(C3CC3)nc2cc1OCCN1CCOCC1)c1cccc(C(F)F)n1` [Example 102, N-(2-cyclopropyl-7-(2-morpholinoethoxy)imidazo[1,2-a]pyridin-6-yl)-6-(difluoromethyl)picolinamide] reads 0.061 µM; that for `O=C(Nc1cc(OCc2ccccc2)c2nc(C3CCOCC3)cn2c1)c1cccc(C(F)(F)F)n1` [Example 103, N-(8-(benzyloxy)-2-(tetrahydro-2H-pyran-4-yl)imidazo[1,2-a]pyridin-6-yl)-6-(trifluoromethyl)picolinamide], 0.023 µM; that for `O=C(Nc1cc(O)c2nc(C3CCOCC3)cn2c1)c1cccc(C(F)(F)F)n1` [Example 104, N-(8-hydroxy-2-(tetrahydro-2H-pyran-4-yl)imidazo[1,2-a]pyridin-6-yl)-6-(trifluoromethyl)picolinamide], 0.13 µM.
Compound `O=C(Nc1cc(Br)c2nc(C3CCOCC3)cn2c1)c1cccc(C(F)(F)F)n1` [Example 106, N-(8-bromo-2-(tetrahydro-2H-pyran-4-yl)imidazo[1,2-a]pyridin-6-yl)-6-(trifluoromethyl)picolinamide] returned a half-inhibitory concentration (IC50) of 0.027 µM.
Compound `O=C(Nc1cc(C2=CCOCC2)c2nc(C3CCOCC3)cn2c1)c1cccc(C(F)(F)F)n1` [Example 107, N-(8-(3,6-dihydro-2H-pyran-4-yl)-2-(tetrahydro-2H-pyran-4-yl)imidazo[1,2-a]pyridin-6-yl)-6-(trifluoromethyl)picolinamide] yielded a 50% inhibitory concentration (IC50) of 0.084 µM.
The result for `CCOc1cc2nc(C3CCOC(C)(C)C3)cn2cc1NC(=O)c1cccc(C(F)(F)F)n1` (stereo not drawn) [Example 113, N-(2-(2,2-dimethyltetrahydro-2H-pyran-4-yl)-7-ethoxyimidazo[1,2-a]pyridin-6-yl)-6-(trifluoromethyl)picolinamide] reads 0.001 µM; that for `CCOc1cc2nc([C@H]3C[C@H](OC)C3)cn2cc1NC(=O)c1cccc(C(F)F)n1` [Example 114, 6-(difluoromethyl)-N-(7-ethoxy-2-((1r,3r)-3-methoxycyclobutyl)imidazo[1,2-a]pyridin-6-yl)picolinamide], 0.001 µM.
In turn, `CCOc1cc2nc(C3CC3)cn2cc1NC(=O)c1cccc(OC(F)(F)F)n1` [Example 118, N-(2-cyclopropyl-7-ethoxyimidazo[1,2-a]pyridin-6-yl)-6-(trifluoromethoxy)picolinamide] registered an IC50 of 0.063 µM.
Under `CCOc1cc2nc(C3CC3)cn2cc1NC(=O)c1cncc(C(F)(F)F)n1` [Example 120, N-(2-cyclopropyl-7-ethoxyimidazo[1,2-a]pyridin-6-yl)-6-(trifluoromethyl)pyrazine-2-carboxamide] stands 0.028 µM; under `CCOc1cc2nc(CN3CCOCC3)cn2cc1NC(=O)c1cccc(C(F)F)n1` [Example 121, 6-(difluoromethyl)-N-(7-ethoxy-2-(morpholinomethyl)imidazo[1,2-a]pyridin-6-yl)picolinamide], 2.21 µM; under `CCOc1cc2nc(C(=O)N3CCOCC3)cn2cc1NC(=O)c1cccc(C(F)F)n1` [Example 126, 6-(difluoromethyl)-N-(7-ethoxy-2-(morpholine-4-carbonyl)imidazo[1,2-a]pyridin-6-yl)picolinamide], 0.35 µM.
Take `CCOc1cc2nc(C34CC(C(C)(C)O)(C3)C4)cn2cc1NC(=O)c1cccc(C(F)F)n1` [Example 129, 6-(difluoromethyl)-N-(7-ethoxy-2-(3-(2-hydroxypropan-2-yl)bicyclo[1.1.1]pentan-1-yl)imidazo[1,2-a]pyridin-6-yl)picolinamide]: the IC50 is 0.001 µM.
In the case of `CCOc1cc2nc(C3CC3)cn2cc1NC(=O)c1cccc(C2(O)CCC2)n1` [Example 132, N-(2-cyclopropyl-7-ethoxyimidazo[1,2-a]pyridin-6-yl)-6-(1-hydroxycyclobutyl)picolinamide], the IC50 turned out to be 0.018 µM.
Under `CN(C)CCOc1cc2nc(C3CCOCC3)cn2cc1NC(=O)c1cccc(C(F)F)n1` [Example 148, 6-(difluoromethyl)-N-(7-(2-(dimethylamino)ethoxy)-2-(tetrahydro-2H-pyran-4-yl)imidazo[1,2-a]pyridin-6-yl)picolinamide] stands 0.023 µM; under `CCOc1cc2nc(CC3CCOC3)cn2cc1NC(=O)c1nc(C)co1` (stereo not drawn) [Example 154, N-(7-ethoxy-2-((tetrahydrofuran-3-yl)methyl)imidazo[1,2-a]pyridin-6-yl)-4-methyloxazole-2-carboxamide], 0.22 µM.
Take `CCOc1cc2nc(CC3CCOC3)cn2cc1NC(=O)c1cn(C)cn1` (stereo not drawn) [Example 157, N-(7-ethoxy-2-((tetrahydrofuran-3-yl)methyl)imidazo[1,2-a]pyridin-6-yl)-1-methyl-1H-imidazole-4-carboxamide]: the midpoint of inhibition, the IC50, lay at 2.3 µM.
For the compound `CCOc1cc2nc(CC3CCOC3)cn2cc1NC(=O)c1nc(C)no1` (stereo not drawn) [Example 158, N-(7-ethoxy-2-((tetrahydrofuran-3-yl)methyl)imidazo[1,2-a]pyridin-6-yl)-3-methyl-1,2,4-oxadiazole-5-carboxamide], the midpoint of inhibition, the IC50, lay at 2.9 µM.
The compound `CC1(COc2cc3nc(C4CCOCC4)cn3cc2NC(=O)c2cnn(C(F)F)c2)COC1` [Example 161, 1-(difluoromethyl)-N-(7-((3-methyloxetan-3-yl)methoxy)-2-(tetrahydro-2H-pyran-4-yl)imidazo[1,2-a]pyridin-6-yl)-1H-pyrazole-4-carboxamide] displayed an IC50 of 0.4 µM.
The compound `O=C(Nc1cn2cc(C3CCOCC3)nc2cn1)c1cnn(C(F)F)c1` [Example 162, 1-(difluoromethyl)-N-(2-(tetrahydro-2H-pyran-4-yl)imidazo[1,2-a]pyrazin-6-yl)-1H-pyrazole-4-carboxamide] gave an IC50 of 0.37 µM.
In the case of `CC(C)Oc1cc2nc(C3CCOCC3)cn2cc1NC(=O)c1cccc(C(F)F)n1` [Example 167, 6-(difluoromethyl)-N-(7-isopropoxy-2-(tetrahydro-2H-pyran-4-yl)imidazo[1,2-a]pyridin-6-yl)picolinamide], 0.001 µM corresponded to half-maximal inhibition (IC50).

The term IC50 denotes the concentration needed to halve the response being measured.
